What all share (assay type): cell-based
One experiment deals with HTT mRNA. Put plainly: RT-qPCR splicing assay for HTT mRNA isoforms (canonical junction CJ and alternative junction AJ). Particulars: A673 or K562 cell line, 24 hours compound treatment; for IC50: decrease in CJ mRNA; for AC50: increase in AJ mRNA. Here is the method:
(§1) Compounds described herein were used to modulate RNA transcript abundance in cells. The expression of a target mRNA was measured by detecting the formation of an exon-exon junction in the canonical transcript (CJ). A compound mediated exon-inclusion event was detected by observing an increase in formation of a new junction with an alternative exon (AJ). Real-time qPCR assays were used to detect these splicing switches and interrogate the potency of various compounds towards different target genes. A high-throughput real time quantitative PCR (RT-qPCR) assay was developed to measure these two isoforms of the mRNA (CJ and AJ) for an exemplary gene, HTT, together with a control housekeeping gene, GAPDH or GUSB or PPIA, used for normalization. Briefly, the A673 or K562 cell line was treated with various compounds described herein (e.g., compounds of Formula (I)). After treatment, the levels of the HTT mRNA targets were determined from each sample of cell lysate by cDNA synthesis followed by qPCR.
Cells-to-CT 1-step kit: ThermoFisher A25602, Cells-to-CT lysis reagent: ThermoFisher 4391851C, TaqMan™ Fast Virus 1-Step Master Mix: ThermoFisher 4444436 GAPDH: VIC-PL, ThermoFisher 4326317E (Assay: Hs99999905_m1)—used for K562/suspension cell lines GUSB: VIC-PL, ThermoFisher 4326320E (Assay: Hs99999908_m1)—used for K562/suspension cell lines PPIA: VIC-PL, ThermoFisher 4326316E (Assay: Hs99999904_m1)—used for A673/adherent cell lines
(§2) The A673 cell line was cultured in DMEM with 10% FBS. Cells were diluted with full growth media and plated in a 96-well plate (15,000 cells in 100 ul media per well). The plate was incubated at 37° C. with 5% CO2 for 24 hours to allow cells to adhere. An 11-point 3-fold serial dilution of the compounds was made in DMSO then diluted in media in an intermediate plate. Compounds were transferred from the intermediate plate to the cell plate with the top dose at a final concentration of 10 uM in the well. Final DMSO concentration was kept at or below 0.25%. The cell plate was returned to the incubator at 37° C. with 5% CO2 for an additional 24 hours.
(§3) The K562 cell line was cultured in IMDM with 10% FBS. For K562, cells were diluted with full growth media and plated in either a 96-well plate (50,000 cells in 50 uL media per well) or a 384-well plate (8,000-40,000 cells in 45 uL media per well). An 11-point 3-fold serial dilution of the compounds were made in DMSO then diluted in media in an intermediate plate. Compound was transferred from the intermediate plate to the cell plate with the top dose at a final concentration of 10 uM in the well. Final DMSO concentration was kept at or below 0.25%. Final volume was 100 uL for 96-well plate and 50 uL for 384-well plate. The cell plate was then placed in an incubator at 37° C. with 5% CO2 for 24 hours.
(§4) The cells were then gently washed with 50 uL-100 uL cold PBS before proceeding to addition of lysis buffer. 30 uL-50 uL of room temperature lysis buffer with DNAse I (and optionally RNAsin) was added to each well. Cells were shaken/mixed thoroughly at room temperature for 5-10 minutes for lysis to take place and then 3 uL-5 uL of room temperature stop solution was added and wells were shaken/mixed again. After 2-5 minutes, the cell lysate plate was transferred to ice for RT-qPCR reaction setup. The lysates could also be frozen at −80° C. for later use.
In some cases, a direct lysis buffer was used. An appropriate volume of 3× lysis buffer (10 mM Tris, 150 mM NaCl, 1.5%-2.5% Igepal and 0.1-1 U/uL RNAsin, pH 7.4) was directly added to either K562 or A673 cells in media and mixed by pipetting 3 times. The plates were then incubated at room temperature with shaking/rocking for 20-50 minutes to allow for lysis to take place. After this time, the cell lysate plate was transferred to ice to set up for the RT-qPCR reactions. The lysates could also be frozen at −80° C. for later use. […]

A further experiment concerns HTT CJ mRNA. In words: Gene panel canonical junction qPCR assay, HTT. Conditions: decrease in CJ mRNA levels, RT-qPCR. On the procedure:
as §1, §2, §3, §4
(§5) In some cases, a direct lysis buffer was used. An appropriate volume of 3× lysis buffer (10 mM Tris, 150 mM NaCl, 1.5%-2.5% Igepal and 0.1-1 U/uL RNAsin, pH 7.4) was directly added to either K562 or A673 cells in media and mixed by pipetting 3 times. The plates were then incubated at room temperature with shaking/rocking for 20-50 minutes to allow for lysis to take place. After this time, the cell lysate plate was transferred to ice to set up for the RT-qPCR reactions. The lysates could also be frozen at −80° C. for later use.
(§6) To set up 10 uL RT-qPCR reactions, cell lysates were transferred to 384-well qPCR plates containing the master mix according to the table below. The plates were sealed, gently vortexed, and spun down before the run. The volumes were adjusted accordingly in some instances where the reaction was carried in 20 uL. The table below summarizes the components of the RT-qPCR reactions:
(§7) The RT-qPCR reaction was performed using a QuantStudio (ThermoFisher) under the following fast cycling conditions. […]
A general note: Real-time PCR tracks product formation cycle by cycle.

The next experiment relates to SMN2 CJ mRNA. Put plainly: Gene panel canonical junction qPCR assay, SMN2. Particulars: decrease in CJ mRNA levels, RT-qPCR. On the procedure:
as §1, §2, §3, §4, §5, §6, §7

The subject of the next experiment is Target C CJ mRNA. Put plainly: Gene panel canonical junction qPCR assay, Target C. Particulars: decrease in CJ mRNA levels, RT-qPCR. Here is the method:
as §1, §2, §3, §4, §5, §6, §7

Some results are limits rather than exact numbers.

In the case of `CN(c1ccc2c(n1)COc1cc(-c3cn[nH]c3)ccc1-2)[C@@H]1C[C@H]2CC[C@@H](C1)N2` [Compound 121, (1R,3S,5S)—N-methyl-N-[8-(1H-pyrazol-4-yl)-5H-chromeno[3,4-b]pyridin-3-yl]-8-azabicyclo[3.2.1]octan-3-amine], the half-maximal inhibitory concentration (IC50) with HTT mRNA, in the experiment on HTT CJ mRNA, in the experiment with SMN2 CJ mRNA and with Target C CJ mRNA was 0.1 to 1 µM throughout. In addition, the AC50 (usually the midpoint of the concentration-response curve, whichever way the signal moves) in the experiment on HTT mRNA lay in the range of 0.1 to 1 µM.
In the case of `CC1(C)CC(Nc2ccc3c(n2)CCOc2cc(-n4cccn4)ccc2-3)CC(C)(C)N1` [Compound 137, 13-(pyrazol-1-yl)-N-(2,2,6,6-tetramethylpiperidin-4-yl)-10-oxa-6-azatricyclo [9.4.0.0^[2,7]]pentadeca-1(11),2(7),3,5,12,14-hexaen-5-amine], the IC50 (commonly the concentration needed to halve the response being measured) in the experiment with HTT mRNA was 1 to 10 µM; with HTT CJ mRNA, over 10 µM; in the experiment with SMN2 CJ mRNA, over 10 µM; with Target C CJ mRNA, 1 to 10 µM. For the same molecule, the AC50 with HTT mRNA was in the range of 1 to 10 µM.
Take `c1cnn(-c2ccc3c(c2)COc2nc(N[C@@H]4C[C@H]5CCC[C@@H](C4)N5)ccc2-3)c1` [Compound 190]: the IC50 was under 0.1 µM in the experiment on HTT mRNA, under 0.1 µM with HTT CJ mRNA, under 0.1 µM in the experiment with SMN2 CJ mRNA and 0.1 to 1 µM in the experiment with Target C CJ mRNA. Moreover, the AC50 with HTT mRNA fell in the range of 0.1 to 1 µM.
`[2H]C([2H])([2H])N(c1ccc2c(n1)OCc1cc(-n3cccn3)ccc1-2)[C@@H]1C[C@H]2CC[C@@H](C1)N2` [Compound 201]: the IC50 was 0.1 to 1 µM with HTT mRNA, 0.1 to 1 µM with HTT CJ mRNA, under 0.1 µM in the experiment on SMN2 CJ mRNA and 0.1 to 1 µM with Target C CJ mRNA. The molecule also gave an AC50 in the experiment on HTT mRNA of 0.1 to 1 µM.
Regarding `CN(c1ccc2c(n1)OCc1cc(-n3cccn3)ccc1-2)[C@H]1C[C@]2(C)CC[C@](C)(C1)N2` [Compound 180], the concentration for half-maximal inhibition (IC50) is under 0.1 µM with HTT mRNA, under 0.1 µM in the experiment on HTT CJ mRNA, under 0.1 µM in the experiment on SMN2 CJ mRNA and 0.1 to 1 µM with Target C CJ mRNA. In the experiment on HTT mRNA, this molecule came in with a concentration at half-maximal activity (AC50) of under 0.1 µM.
On to `CN(c1cnc2c(n1)OCc1cc(-c3cn[nH]c3)ccc1-2)C1CC(C)(C)NC(C)(C)C1` [Compound 142, N,2,2,6,6-pentamethyl-N-[8-(1H-pyrazol-4-yl)-6H-isochromeno[3,4-b]pyrazin-3-yl]piperidin-4-amine], for which the half-maximal inhibitory concentration (IC50) in the experiment with HTT mRNA was 0.1 to 1 µM; with HTT CJ mRNA, 0.1 to 1 µM; in the experiment on SMN2 CJ mRNA, 0.1 to 1 µM; with Target C CJ mRNA, 1 to 10 µM. In the experiment with HTT mRNA, this molecule displayed an AC50 of 0.1 to 1 µM.
On to `CN(c1ccc2c(c1)CCOc1cc(-n3cccn3)ccc1-2)[C@@H]1C[C@H]2CC[C@@H](C1)N2` [Compound 113], for which the IC50 in the experiment with HTT mRNA, with HTT CJ mRNA, in the experiment with SMN2 CJ mRNA and in the experiment on Target C CJ mRNA was over 10 µM each time. The molecule also gave an AC50 in the experiment with HTT mRNA of over 10 µM.
As for `CN(c1ccc2c(n1)OCc1cc(-c3ccc(=O)[nH]c3)ccc1-2)[C@@H]1C[C@H]2CC[C@@H](C1)N2` [Compound 157], the 50% inhibitory concentration (IC50) was in the range of 1 to 10 µM in the experiment on HTT mRNA, 1 to 10 µM with HTT CJ mRNA, 0.1 to 1 µM in the experiment with SMN2 CJ mRNA and 1 to 10 µM in the experiment with Target C CJ mRNA. Moreover, the AC50 with HTT mRNA was in the range of 1 to 10 µM.
Take `CN(c1ccc2c(n1)OCc1cc(-c3cn[nH]c3)ccc1-2)C1CCNCC1` [Compound 116, N-Methyl-N-[8-(1H-pyrazol-4-yl)-6H-isochromeno[3,4-b]pyridin-3-yl]piperidin-4-amine]: the IC50 with HTT mRNA, in the experiment with HTT CJ mRNA, with SMN2 CJ mRNA and in the experiment with Target C CJ mRNA was 0.1 to 1 µM throughout. Also, in the experiment on HTT mRNA, the AC50 is 1 to 10 µM.
For `CN(c1ccc2c(n1)CCOc1cc(-n3cccn3)ccc1-2)C1CC(C)(C)NC(C)(C)C1` [Compound 129, N-methyl-13-(pyrazol-1-yl)-N-(2,2,6,6-tetramethylpiperidin-4-yl)-10-oxa-6-azatricyclo[9.4.0.0^[2,7]]pentadeca-1(11),2(7),3,5,12,14-hexaen-5-amine], the IC50 in the experiment on HTT mRNA, in the experiment with HTT CJ mRNA, in the experiment with SMN2 CJ mRNA and in the experiment with Target C CJ mRNA was over 10 µM each time. For the same molecule, in the experiment on HTT mRNA, the AC50 is over 10 µM.

For the origin of these results see patent US20230148184A1, “COMPOUNDS AND METHODS FOR MODULATING SPLICING” (REMIX THERAPEUTICS INC., priority 2020, published 2023).
